{"source": "patent US6355270B1", "about": "“Particles for oral delivery of peptides and proteins” (The Regents of the University of California, priority 1999, dated 2002)", "origin": "cited, not measured here", "key": {"[1]": {"tested_on": "intestinal tight junctions", "conditions": "rabbit intestine, in vitro, reversible"}, "[2]": {"tested_on": "intestinal tight junctions", "conditions": "in vivo"}}, "note": "Like-named read-outs stand apart in the source and are kept apart here.", "data": [{"substance": "Zonula occludens toxin [Zot]", "values": [{"measurement": "increase of intestinal permeability to insulin", "setting": "[1]; P=0.034", "result": 72, "unit": "%"}, {"measurement": "increase of intestinal permeability to immunoglobulins", "setting": "[1]; P=0.04", "result": 52, "unit": "%"}, {"measurement": "increase of insulin absorption", "setting": "[2]; both rabbit jejunum and ileum", "result": 10, "unit": "fold"}, {"measurement": "change of insulin absorption", "setting": "[2]; rabbit colon", "result": "no substantial changes"}, {"measurement": "increase of IgG absorption", "setting": "[2]; rabbit ileum", "result": "six-fold"}, {"measurement": "increase of IgG absorption", "setting": "[2]; rabbit jejunum", "result": "twofold"}, {"measurement": "survival time", "setting": "diabetic rats; diabetic animals chronically treated with oral insulin+Zot, versus parenterally treated rats", "result": "comparable to that observed in parenterally treated rats"}, {"measurement": "lowering of serum glucose concentrations", "setting": "diabetic rats; diabetic rats, oral insulin co-administered with Zot, versus parenteral injection of insulin", "result": "comparable to those obtained after parenteral injection of the hormone"}]}]}
